# According to PubChem BioAssay (NCI):
#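 In this assay, cells in 96-well plates receive the compound at five concentrations for 48 hours. Endpoints are linearly interpolated between the surrounding concentrations. Here, GI50 denotes the concentration required for 50% inhibition of growth. At the TGI there is no net growth.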
# Columns and labels:
# Test in all cases: NCI anticancer screen, dose series, 48 h
# [1] = tested on: DU-145 prostate
# [2] = tested on: KM12 colon
# [3] = tested on: NCI-H226 lung
# [4] = tested on: NCI/ADR-RES ovarian
# [5] = tested on: OVCAR-4 ovarian
# [6] = tested on: RXF 393 renal
# [7] = tested on: SF-539 CNS
# [8] = tested on: SK-MEL-5 melanoma
# [9] = tested on: SW-620 colon
# [10] = tested on: T-47D breast
SMILES,TGI [1],TGI [2],TGI [3],TGI [4],TGI [5],TGI [6],TGI [7],TGI [8],TGI [9],TGI [10],GI50 [1],GI50 [2],GI50 [5],GI50 [6],GI50 [7],GI50 [8],GI50 [9],GI50 [10],GI50 [4]
Cc1cc2c(cc1-c1cc3c(cc1C)C(C(C)C)=C(O)C(=O)/C3=C\Nc1nc(-c3ccccc3)cs1)/C(=C/Nc1nc(-c3ccccc3)cs1)C(=O)C(O)=C2C(C)C,55 µM,> 100 µM,58.4 µM,63.9 µM,86.7 µM,54.5 µM,43.9 µM,31.4 µM,29 µM,> 100 µM,,,,,,,,,
CCOC(=O)c1ccc(-c2cc(C)[nH]n2)[nH]1,> 100 µM,> 100 µM,> 100 µM,> 100 µM,> 100 µM,> 100 µM,> 100 µM,> 100 µM,> 100 µM,> 100 µM,,,,,,,,,
CC1(C)CCC[C@]2(C)[C@@H]1CC[C@@]13O[C@@H]1C1=C(CO)C(=O)O[C@]14O[C@@H]4[C@@H]23,33.8 µM,63.8 µM,42.1 µM,39.1 µM,30 µM,25.2 µM,37.6 µM,31.7 µM,29.5 µM,> 100 µM,,,,,,,,,
COCn1c(C)c(C)c2c(=O)oc(=O)[nH]c21,> 100 µM,> 100 µM,> 100 µM,> 100 µM,> 100 µM,> 100 µM,> 100 µM,> 100 µM,> 100 µM,> 100 µM,,,,,,,,,
COc1c(-c2cc(C)c(Cl)c(=O)[nH]2)c(O)c(OC)c2occc12,> 100 µM,> 100 µM,> 100 µM,> 100 µM,> 100 µM,> 100 µM,> 100 µM,> 100 µM,> 100 µM,> 100 µM,,,,,,,,,
CSC1=Nc2ccccc2-c2nc(-c3ccccc3)cc(-c3ccccc3)c2C1,> 100 µM,> 100 µM,> 100 µM,> 100 µM,> 100 µM,45 µM,> 100 µM,75.1 µM,> 100 µM,76.4 µM,,,,,,,,,
CCCC1NC(C#N)(C#N)C(CCC)NC1(C#N)C#N (stereo not given),> 43.1 µM,> 65.9 µM,81.1 µM,15.2 µM,> 100 µM,> 66.9 µM,,> 100 µM,> 100 µM,> 71.5 µM,,,,,,,,,
CCOC(=O)c1c(SC(=O)c2cc(OC)c(OC)c(OC)c2)n(-c2ccccc2)c(=S)n(-c2ccccc2)c1=O,> 100 µM,> 100 µM,> 100 µM,> 100 µM,> 100 µM,> 100 µM,> 100 µM,,> 100 µM,> 100 µM,,,,,,,,,
c1ccc2c(c1)c1c(n2CCOCCN2CCCCC2)CCCC1,32.6 µM,26.7 µM,38.5 µM,23.4 µM,25.3 µM,,31.7 µM,21.1 µM,35.7 µM,35.2 µM,,,,,,,,,
O=C1Cc2c(-c3ccc(Cl)cc3)cc(-c3ccccc3)nc2-c2ccccc2N1,> 61.4 µM,> 100 µM,44.9 µM,26.4 µM,26.4 µM,20.3 µM,25.4 µM,21 µM,> 46 µM,12.9 µM,,,,,,,,,
COc1cc2c(cc1OCCCC(=O)Nc1cc(C(=O)Nc3cc(C(=O)Nc4cc(C(=O)NCCCN(C)C)n(C)c4)n(C)c3)n(C)c1)N=C[C@@H]1CCCN1C2=O,10.2 µM,> 52.2 µM,37.9 µM,6.21 µM,3.15 µM,3.15 µM,8.72 µM,6.65 µM,5.98 µM,4 µM,,,,,,,,,
N#CCCNCCN(CCN(C(=O)Nc1ccccc1)c1ccccc1)C(=O)Nc1ccccc1,> 100 µM,,> 100 µM,> 100 µM,,> 100 µM,,45 µM,> 100 µM,> 100 µM,,,,,,,,,
C(=N\Nc1ncc(-c2cc3cc4c(cc3o2)OCO4)s1)/c1c[nH]c2ccccc12,3.31 µM,2.04 µM,,,4.1 µM,2.78 µM,1.98 µM,3.23 µM,3 µM,> 100 µM,0.739 µM,0.449 µM,0.503 µM,1.33 µM,0.669 µM,1.66 µM,1.2 µM,2.09 µM,
CCSc1ncnc2c(C3OC(CO)C(O)C3O)nsc12 (stereo not given),> 100 µM,,> 100 µM,> 100 µM,> 100 µM,> 100 µM,> 100 µM,> 100 µM,> 100 µM,> 100 µM,,,,,,,,,
Cc1cc(S(=O)(=O)Nc2nc3ccsc3c(=O)n2N)c(S)cc1Cl,> 100 µM,> 100 µM,88 µM,> 100 µM,> 100 µM,,> 100 µM,> 100 µM,> 100 µM,,,,,,,,,,
Cc1cn(C2CC(O)C(CO)C2C)c(=O)[nH]c1=O (stereo not given),,> 100 µM,> 100 µM,,> 100 µM,> 100 µM,> 100 µM,,> 100 µM,,,,,,,,,,
COc1ccc2c(c1)OCC1(O)Cc3ccccc3OC21 (stereo not given),> 100 µM,> 100 µM,> 100 µM,> 100 µM,> 100 µM,,> 100 µM,> 100 µM,> 100 µM,> 100 µM,,,,,,,,,
COC12C=C/C(=C(/C(=O)OCc3ccncn3)C(=O)CCCCCCCCC3(OC)C=C/C(=C(/C(=O)OCc4ccncn4)C(=O)CCCCCCCC1)O3)O2,2.72 µM,0.499 µM,,12.6 µM,2.16 µM,,2.66 µM,,1.14 µM,25.7 µM,0.484 µM,0.227 µM,0.317 µM,,0.354 µM,,0.303 µM,0.28 µM,0.417 µM
CC(=O)NC1(C)CCC(C(C)(C)NC(C)=O)CC1 (stereo not given),> 100 µM,> 100 µM,> 100 µM,> 100 µM,> 100 µM,> 100 µM,> 100 µM,> 100 µM,> 100 µM,,,,,,,,,,
COc1cc2c(cc1OC)C1CN3C(=O)CCC3C(O)C1c1cc(OC)c(OC)cc1-2 (stereo not given),> 100 µM,> 100 µM,,> 100 µM,> 100 µM,> 100 µM,,> 100 µM,> 100 µM,> 100 µM,,,,,,,,,
CC(C)(C)C#C[P+](c1ccccc1)(c1ccccc1)c1ccccc1,,0.687 µM,0.984 µM,,1.42 µM,1.37 µM,1.39 µM,0.634 µM,0.843 µM,,,,,,,,,,
